{"source": "PubChem BioAssay AID330", "about": "(DTP/NCI, 2004)", "tested_on": "P388 leukemia ip, CD2F1 mice, survival T/C", "assay": "NCI In Vivo Anticancer Drug Screen. Data for tumor model P388 Leukemia (intraperitoneal) in CD2F1 (CDF1) mice", "settings": "endpoint: median survival time, higher = longer survival", "procedure,_shortened": "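Mice carrying the transplanted tumor received test compound or vehicle. Survival was recorded in each group, and the value is the treated-group measurement divided by that of the vehicle-treated control group.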", "key": {"[1]": {"settings": "dose: 60.0 mg/kg/injection, schedule: Q01DX005 (ip), vehicle: Klucel (hydroxypropylcellulose) (HPC)"}, "[2]": {"settings": "dose: 120.0 mg/kg/injection, schedule: Q01DX005 (ip), vehicle: Klucel (hydroxypropylcellulose) (HPC)"}, "[3]": {"settings": "dose: 240.0 mg/kg/injection, schedule: Q01DX005 (ip), vehicle: Klucel (hydroxypropylcellulose) (HPC)"}, "[4]": {"settings": "dose: 60.0 mg/kg/injection, schedule: Q01DX005 (ip), vehicle: saline with Tween-80"}, "[5]": {"settings": "dose: 120.0 mg/kg/injection, schedule: Q01DX005 (ip), vehicle: saline with Tween-80"}, "[6]": {"settings": "dose: 240.0 mg/kg/injection, schedule: Q01DX005 (ip), vehicle: saline with Tween-80"}, "[7]": {"settings": "dose: 50.0 mg/kg/injection, schedule: Q01DX005 (ip), vehicle: Klucel (hydroxypropylcellulose) (HPC)"}, "[8]": {"settings": "dose: 100.0 mg/kg/injection, schedule: Q01DX005 (ip), vehicle: Klucel (hydroxypropylcellulose) (HPC)"}, "[9]": {"settings": "dose: 200.0 mg/kg/injection, schedule: Q01DX005 (ip), vehicle: Klucel (hydroxypropylcellulose) (HPC)"}, "[10]": {"settings": "dose: 50.0 mg/kg/injection, schedule: Q01DX009 (ip), vehicle: saline with Tween-80"}, "[11]": {"settings": "dose: 100.0 mg/kg/injection, schedule: Q01DX009 (ip), vehicle: saline with Tween-80"}, "[12]": {"settings": "dose: 200.0 mg/kg/injection, schedule: Q01DX009 (ip), vehicle: saline with Tween-80"}}, "note": "Values joined by “and” are separate entries in the source; they are usually repeats but may differ in a detail not shown here. Identical values can stand only once. Toxic doses and inconclusive results are not listed."}
{"molecule": "CC1(C)SC(C)(c2ccc[nH]2)N(c2nccs2)C1=O", "note": "(stereo not drawn)", "values": [{"measurement": "T/C", "setting": "[1]", "value": "106 % of control"}, {"measurement": "T/C", "setting": "[2]", "value": "104 % of control"}, {"measurement": "T/C", "setting": "[3]", "value": "102 % of control"}]}
{"molecule": "COC(=O)C(=O)C1(c2ccccc2)C(=O)C(c2ccccc2)=CC1O", "note": "(stereo not drawn)", "values": [{"measurement": "T/C", "setting": "dose: 60.0 mg/kg/injection, schedule: Q01DX005 (ip), vehicle: saline + Tween-80 + alcohol", "value": "104 % of control"}, {"measurement": "T/C", "setting": "dose: 120.0 mg/kg/injection, schedule: Q01DX005 (ip), vehicle: saline + Tween-80 + alcohol", "value": "101 % of control"}, {"measurement": "T/C", "setting": "dose: 240.0 mg/kg/injection, schedule: Q01DX005 (ip), vehicle: saline + Tween-80 + alcohol", "value": "100 % of control"}]}
{"molecule": "C=C(CCS(=O)c1ccccc1)CC(CC(=C)COC(C)=O)S(=O)(=O)c1ccccc1", "note": "(stereo not drawn)", "values": [{"measurement": "T/C", "setting": "[1]", "value": "99 % of control"}, {"measurement": "T/C", "setting": "[2]", "value": "99 % of control"}, {"measurement": "T/C", "setting": "[3]", "value": "98 % of control"}]}
{"molecule": "CCOC(=O)NNC(=O)Nc1ccccc1F", "values": [{"measurement": "T/C", "setting": "[4]", "value": "108 % of control"}, {"measurement": "T/C", "setting": "[5]", "value": "96 % of control"}, {"measurement": "T/C", "setting": "[6]", "value": "99 % of control"}]}
{"molecule": "COC(=O)c1csccc1=O", "values": [{"measurement": "T/C", "setting": "[7]", "value": "112 % of control"}, {"measurement": "T/C", "setting": "[8]", "value": "97 % of control"}, {"measurement": "T/C", "setting": "[9]", "value": "95 % of control"}]}
{"molecule": "O=C1c2ccccc2NC(c2cc(Cl)cc(Cl)c2O)N1CCc1ccccn1", "note": "(stereo not drawn)", "values": [{"measurement": "T/C", "setting": "dose: 50.0 mg/kg/injection, schedule: Q01DX009 (ip), vehicle: saline", "value": "92 % of control"}, {"measurement": "T/C", "setting": "dose: 100.0 mg/kg/injection, schedule: Q01DX009 (ip), vehicle: saline", "value": "94 % of control"}]}
{"molecule": "O=C(NC1CCCCC1)C(O)C(O)C(O)C(O)CO", "note": "(stereo not drawn)", "values": [{"measurement": "T/C", "setting": "[7]", "value": "107 % of control"}, {"measurement": "T/C", "setting": "[8]", "value": "107 % of control"}, {"measurement": "T/C", "setting": "[9]", "value": "104 % of control"}]}
{"molecule": "CCCC(=O)C(=O)c1ccc(O)cc1O", "values": [{"measurement": "T/C", "setting": "dose: 50.0 mg/kg/injection, schedule: Q01DX009 (ip), vehicle: Klucel (hydroxypropylcellulose) (HPC)", "value": "108 % of control"}, {"measurement": "T/C", "setting": "dose: 100.0 mg/kg/injection, schedule: Q01DX009 (ip), vehicle: Klucel (hydroxypropylcellulose) (HPC)", "value": "116 % of control"}, {"measurement": "T/C", "setting": "dose: 200.0 mg/kg/injection, schedule: Q01DX009 (ip), vehicle: Klucel (hydroxypropylcellulose) (HPC)", "value": "119 % of control"}]}
{"molecule": "COC1OC(COC(=O)c2ccccc2)C=C(OC(=O)c2ccccc2)C1=O", "note": "(stereo not drawn)", "values": [{"measurement": "T/C", "setting": "dose: 6.25 mg/kg/injection, schedule: Q01DX009 (ip), vehicle: saline with Tween-80", "value": "103 % of control"}, {"measurement": "T/C", "setting": "dose: 12.5 mg/kg/injection, schedule: Q01DX009 (ip), vehicle: saline with Tween-80", "value": "105 % of control"}, {"measurement": "T/C", "setting": "dose: 25.0 mg/kg/injection, schedule: Q01DX009 (ip), vehicle: saline with Tween-80", "value": "103 % of control"}, {"measurement": "T/C", "setting": "[10]", "value": "102 % of control and 113 % of control and 114 % of control"}, {"measurement": "T/C", "setting": "[11]", "value": "105 % of control and 92 % of control"}, {"measurement": "T/C", "setting": "[12]", "value": "114 % of control and 96 % of control"}]}
{"molecule": "COC(=O)Nc1cn2c(n1)sc1ccccc12", "values": [{"measurement": "T/C", "setting": "dose: 100.0 mg/kg/injection, schedule: Q01DX001 (ip), vehicle: saline with Tween-80", "value": "100 % of control"}, {"measurement": "T/C", "setting": "dose: 200.0 mg/kg/injection, schedule: Q01DX001 (ip), vehicle: saline with Tween-80", "value": "96 % of control"}, {"measurement": "T/C", "setting": "dose: 400.0 mg/kg/injection, schedule: Q01DX001 (ip), vehicle: saline with Tween-80", "value": "91 % of control"}]}
{"molecule": "Cc1ccc(NC(=O)CCCC(=O)C(C#N)c2ccccc2C)cc1C", "note": "(stereo not drawn)", "values": [{"measurement": "T/C", "setting": "[4]", "value": "113 % of control"}, {"measurement": "T/C", "setting": "[5]", "value": "103 % of control"}, {"measurement": "T/C", "setting": "[6]", "value": "102 % of control"}]}
{"molecule": "CN(C)c1ccc(-c2nn(C)c3nc(=O)n(C)c(=O)c-3[n+]2[O-])cc1", "values": [{"measurement": "T/C", "setting": "dose: 1.56 mg/kg/injection, schedule: Q01DX001 (ip), vehicle: saline", "value": "101 % of control"}, {"measurement": "T/C", "setting": "dose: 3.12 mg/kg/injection, schedule: Q01DX001 (ip), vehicle: saline", "value": "103 % of control"}, {"measurement": "T/C", "setting": "dose: 6.25 mg/kg/injection, schedule: Q01DX001 (ip), vehicle: saline", "value": "100 % of control and 103 % of control"}]}
{"molecule": "NC1=NC(=S)C2N=C(N=Nc3ccc(C(=O)NC(CCC(=O)O)C(=O)O)cc3)N=C2N1", "note": "(stereo not drawn)", "values": [{"measurement": "T/C", "setting": "dose: 0.19 mg/kg/injection, schedule: Q01DX009 (ip), vehicle: Klucel (hydroxypropylcellulose) (HPC)", "value": "108 % of control and 120 % of control"}, {"measurement": "T/C", "setting": "dose: 3.0 mg/kg/injection, schedule: Q01DX009 (ip), vehicle: Klucel (hydroxypropylcellulose) (HPC)", "value": "156 % of control"}]}
{"molecule": "O=C(NC(=NC(=NC1CCCCC1)c1ccccc1)c1ccccc1)c1ccccc1", "values": [{"measurement": "T/C", "setting": "[10]", "value": "99 % of control"}, {"measurement": "T/C", "setting": "[11]", "value": "92 % of control"}, {"measurement": "T/C", "setting": "[12]", "value": "89 % of control"}]}
{"molecule": "O=C(CCC(=O)Nc1cccc([N+](=O)[O-])c1)CC(=O)c1ccc(Cl)cc1", "values": [{"measurement": "T/C", "setting": "[4]", "value": "96 % of control"}, {"measurement": "T/C", "setting": "[5]", "value": "105 % of control"}, {"measurement": "T/C", "setting": "[6]", "value": "96 % of control"}]}
{"molecule": "Cc1cc(NCCCCNCCCNc2cc(C)nc3cc([N+](=O)[O-])ccc23)c2ccc([N+](=O)[O-])cc2n1", "values": [{"measurement": "T/C", "setting": "dose: 12.5 mg/kg/injection, schedule: Q01DX009 (ip), vehicle: other", "value": "150 % of control"}]}
{"molecule": "CCCCC1(O)C(=O)N(c2ccccc2)N(c2ccccc2)C1=O", "values": [{"measurement": "T/C", "setting": "[1]", "value": "102 % of control"}, {"measurement": "T/C", "setting": "[2]", "value": "102 % of control"}, {"measurement": "T/C", "setting": "[3]", "value": "96 % of control"}]}
{"molecule": "O/N=C(/C=N/O)SCCSC(/C=N/O)=N/O", "values": [{"measurement": "T/C", "setting": "[7]", "value": "110 % of control"}, {"measurement": "T/C", "setting": "[8]", "value": "109 % of control"}, {"measurement": "T/C", "setting": "[9]", "value": "112 % of control"}]}
